# Measured values reported in ChEMBL document CHEMBL4507300 (2021).
# How the values were obtained:
# [1] = system: Epidermal growth factor receptor (Homo sapiens), P00533 [UNDEFINED MUTATION]; details: Compound concentration 1000.0 nM
# [2] = target: Alpha-1D adrenergic receptor (Homo sapiens) (UniProt P25100); details: Compound concentration 10.0 uM
# [3] = target: Ephrin type-B receptor 4 (Homo sapiens) (UniProt P54760); details: Compound concentration 1000.0 nM
# [4] = target: LIM domain kinase 2 (Homo sapiens) (UniProt P53671); details: Compound concentration 1000.0 nM
# [5] = target: Serine/threonine-protein kinase OSR1 (Homo sapiens) (UniProt O95747); details: Compound concentration 1000.0 nM
# [6] = target: Inhibitor of nuclear factor kappa-B kinase subunit alpha (Homo sapiens) (UniProt O15111); details: Compound concentration 1000.0 nM
# Sequence of Inhibitor of nuclear factor kappa-B kinase subunit alpha (Homo sapiens) (O15111 whole entry): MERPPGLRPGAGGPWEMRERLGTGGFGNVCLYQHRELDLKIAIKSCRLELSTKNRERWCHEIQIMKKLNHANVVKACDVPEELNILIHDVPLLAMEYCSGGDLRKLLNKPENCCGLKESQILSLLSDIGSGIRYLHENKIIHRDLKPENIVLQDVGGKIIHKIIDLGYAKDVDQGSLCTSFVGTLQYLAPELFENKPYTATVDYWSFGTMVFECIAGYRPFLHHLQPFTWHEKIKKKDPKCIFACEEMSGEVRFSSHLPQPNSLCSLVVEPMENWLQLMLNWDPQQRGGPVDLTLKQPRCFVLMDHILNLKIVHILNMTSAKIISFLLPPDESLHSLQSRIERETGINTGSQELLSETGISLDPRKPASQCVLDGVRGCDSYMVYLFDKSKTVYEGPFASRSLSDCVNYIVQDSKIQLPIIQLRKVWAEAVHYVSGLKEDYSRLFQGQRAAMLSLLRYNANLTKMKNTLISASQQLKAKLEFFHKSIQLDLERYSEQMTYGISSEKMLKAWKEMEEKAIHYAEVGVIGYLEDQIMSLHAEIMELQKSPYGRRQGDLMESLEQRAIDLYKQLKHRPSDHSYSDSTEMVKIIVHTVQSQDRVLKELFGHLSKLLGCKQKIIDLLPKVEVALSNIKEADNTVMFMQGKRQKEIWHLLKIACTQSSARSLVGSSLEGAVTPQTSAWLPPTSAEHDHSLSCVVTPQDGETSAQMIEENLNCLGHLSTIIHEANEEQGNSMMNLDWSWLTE
# [7] = target: Serine/threonine-protein kinase Nek2 (Homo sapiens) (UniProt P51955); details: Compound concentration 1000.0 nM
# [8] = target: Non-receptor tyrosine-protein kinase TYK2 (Homo sapiens) (UniProt P29597); details: Compound concentration 1000.0 nM
# [9] = system: Serine/threonine-protein kinase B-raf (Homo sapiens), P15056 [V600E]; details: Compound concentration 1000.0 nM
# [10] = target: Dual specificity testis-specific protein kinase 1 (Homo sapiens) (UniProt Q15569); details: Compound concentration 1000.0 nM
# [11] = target: Alpha-2C adrenergic receptor (Homo sapiens) (UniProt P18825); details: Compound concentration 10.0 uM
# [12] = target: Hepatocyte growth factor receptor (Homo sapiens) (UniProt P08581); details: Compound concentration 1000.0 nM
# [13] = target: Angiopoietin-1 receptor (Homo sapiens) (UniProt Q02763); details: Compound concentration 1000.0 nM
# Sequence of Angiopoietin-1 receptor (Homo sapiens) (Q02763 whole entry): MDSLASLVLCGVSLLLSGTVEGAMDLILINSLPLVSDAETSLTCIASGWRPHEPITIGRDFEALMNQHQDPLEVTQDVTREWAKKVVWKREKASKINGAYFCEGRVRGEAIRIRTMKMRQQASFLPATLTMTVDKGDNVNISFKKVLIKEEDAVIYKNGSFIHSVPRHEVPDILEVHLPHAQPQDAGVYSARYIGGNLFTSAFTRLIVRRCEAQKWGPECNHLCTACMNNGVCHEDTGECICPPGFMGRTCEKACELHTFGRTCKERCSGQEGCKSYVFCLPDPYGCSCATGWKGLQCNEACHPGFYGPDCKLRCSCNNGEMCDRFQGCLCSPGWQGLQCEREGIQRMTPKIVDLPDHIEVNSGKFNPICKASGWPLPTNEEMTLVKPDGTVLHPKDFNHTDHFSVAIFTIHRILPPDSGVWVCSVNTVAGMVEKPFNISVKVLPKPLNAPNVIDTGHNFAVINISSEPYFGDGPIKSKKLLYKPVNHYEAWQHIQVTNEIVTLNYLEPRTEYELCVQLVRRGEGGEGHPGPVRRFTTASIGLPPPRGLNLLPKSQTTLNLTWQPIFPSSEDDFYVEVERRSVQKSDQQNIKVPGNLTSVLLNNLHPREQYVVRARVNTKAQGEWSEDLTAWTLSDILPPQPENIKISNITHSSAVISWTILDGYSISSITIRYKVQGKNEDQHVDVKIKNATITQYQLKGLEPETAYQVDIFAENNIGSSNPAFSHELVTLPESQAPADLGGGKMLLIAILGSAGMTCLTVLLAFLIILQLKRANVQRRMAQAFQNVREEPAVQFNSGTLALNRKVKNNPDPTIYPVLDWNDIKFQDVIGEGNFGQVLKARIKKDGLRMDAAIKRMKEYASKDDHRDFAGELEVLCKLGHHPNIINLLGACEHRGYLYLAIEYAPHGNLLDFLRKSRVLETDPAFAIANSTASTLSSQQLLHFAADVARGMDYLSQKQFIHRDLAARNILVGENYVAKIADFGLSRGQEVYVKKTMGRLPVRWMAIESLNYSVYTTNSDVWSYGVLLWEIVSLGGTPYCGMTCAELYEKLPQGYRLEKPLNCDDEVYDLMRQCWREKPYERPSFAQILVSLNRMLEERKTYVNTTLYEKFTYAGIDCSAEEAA
# [14] = system: Tyrosine-protein kinase ABL1 (Homo sapiens), P00519 [E255K]; details: Compound concentration 1000.0 nM
# [15] = target: Ribosomal protein S6 kinase alpha-3 (Homo sapiens) (UniProt P51812); details: Compound concentration 1000.0 nM
# [16] = system: Epidermal growth factor receptor (Homo sapiens), P00533 [UNDEFINED MUTATION]; details: Compound concentration 1000.0 nM; remark: listed apart in the source
# [17] = target: Serine/threonine-protein kinase SIK1 (Homo sapiens) (UniProt P57059); details: Compound concentration 1000.0 nM
# [18] = target: Mitogen-activated protein kinase kinase kinase 2 (Homo sapiens) (UniProt Q9Y2U5); details: Compound concentration 1000.0 nM
# [19] = target: Atypical kinase COQ8B, mitochondrial (Homo sapiens) (UniProt Q96D53); details: Compound concentration 1000.0 nM
# [20] = target: 5-hydroxytryptamine receptor 6 (Homo sapiens) (UniProt P50406); details: Compound concentration 10.0 uM
# Sequence of 5-hydroxytryptamine receptor 6 (Homo sapiens) (P50406 whole entry): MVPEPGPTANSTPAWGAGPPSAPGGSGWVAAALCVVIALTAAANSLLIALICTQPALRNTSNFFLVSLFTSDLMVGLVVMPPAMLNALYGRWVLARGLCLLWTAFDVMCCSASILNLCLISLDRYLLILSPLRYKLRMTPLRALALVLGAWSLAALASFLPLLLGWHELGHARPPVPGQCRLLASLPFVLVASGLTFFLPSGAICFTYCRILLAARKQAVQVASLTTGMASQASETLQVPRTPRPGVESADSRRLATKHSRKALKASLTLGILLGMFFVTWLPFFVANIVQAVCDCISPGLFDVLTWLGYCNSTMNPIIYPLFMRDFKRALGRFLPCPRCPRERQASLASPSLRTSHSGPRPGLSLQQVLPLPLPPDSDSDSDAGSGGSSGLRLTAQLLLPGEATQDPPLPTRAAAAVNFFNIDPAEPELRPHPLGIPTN
# [21] = target: Tyrosine-protein kinase FRK (Homo sapiens) (UniProt P42685); details: Compound concentration 1000.0 nM
# [22] = target: Transient receptor potential cation channel subfamily M member 6 (Homo sapiens) (UniProt Q9BX84); details: Compound concentration 1000.0 nM
# [23] = target: Serine/threonine-protein kinase 33 (Homo sapiens) (UniProt Q9BYT3); details: Compound concentration 1000.0 nM
# [24] = target: Serine/threonine-protein kinase 3 (Homo sapiens) (UniProt Q13188); details: Compound concentration 1000.0 nM
# [25] = target: Macrophage colony-stimulating factor 1 receptor (Homo sapiens) (UniProt P07333); details: Compound concentration 1000.0 nM
# Sequence of Macrophage colony-stimulating factor 1 receptor (Homo sapiens) (P07333 whole entry): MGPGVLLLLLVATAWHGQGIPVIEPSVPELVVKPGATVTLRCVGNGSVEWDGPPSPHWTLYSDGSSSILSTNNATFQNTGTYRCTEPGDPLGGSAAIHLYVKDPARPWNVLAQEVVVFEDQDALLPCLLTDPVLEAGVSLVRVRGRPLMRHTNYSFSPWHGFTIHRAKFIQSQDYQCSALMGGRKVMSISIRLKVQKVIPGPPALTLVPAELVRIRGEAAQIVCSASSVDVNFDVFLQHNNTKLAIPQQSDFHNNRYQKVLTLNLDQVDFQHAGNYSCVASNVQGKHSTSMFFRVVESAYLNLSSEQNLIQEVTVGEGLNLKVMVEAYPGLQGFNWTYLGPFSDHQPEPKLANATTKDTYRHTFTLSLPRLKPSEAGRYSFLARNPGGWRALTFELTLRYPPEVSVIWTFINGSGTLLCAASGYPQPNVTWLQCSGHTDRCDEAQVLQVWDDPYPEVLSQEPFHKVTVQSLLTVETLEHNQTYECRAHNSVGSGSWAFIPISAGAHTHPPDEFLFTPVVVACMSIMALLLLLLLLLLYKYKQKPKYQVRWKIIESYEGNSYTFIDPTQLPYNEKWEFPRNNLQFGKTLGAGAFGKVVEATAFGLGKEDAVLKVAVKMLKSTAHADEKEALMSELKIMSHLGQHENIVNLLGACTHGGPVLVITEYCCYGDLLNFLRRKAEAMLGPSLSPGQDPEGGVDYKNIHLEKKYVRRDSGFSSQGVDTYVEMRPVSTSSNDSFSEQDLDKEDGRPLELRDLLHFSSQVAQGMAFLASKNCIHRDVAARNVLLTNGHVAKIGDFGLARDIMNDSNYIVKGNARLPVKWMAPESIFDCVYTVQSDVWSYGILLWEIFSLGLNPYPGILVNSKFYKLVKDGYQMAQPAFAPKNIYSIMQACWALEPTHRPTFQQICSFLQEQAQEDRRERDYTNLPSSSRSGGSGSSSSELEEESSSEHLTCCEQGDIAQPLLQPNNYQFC
# [26] = target: Serine/threonine-protein kinase LATS2 (Homo sapiens) (UniProt Q9NRM7); details: Compound concentration 1000.0 nM
# [27] = target: Calcium/calmodulin-dependent protein kinase type II subunit beta (Homo sapiens) (UniProt Q13554); details: Compound concentration 1000.0 nM
# Sequence of Calcium/calmodulin-dependent protein kinase type II subunit beta (Homo sapiens) (Q13554 whole entry): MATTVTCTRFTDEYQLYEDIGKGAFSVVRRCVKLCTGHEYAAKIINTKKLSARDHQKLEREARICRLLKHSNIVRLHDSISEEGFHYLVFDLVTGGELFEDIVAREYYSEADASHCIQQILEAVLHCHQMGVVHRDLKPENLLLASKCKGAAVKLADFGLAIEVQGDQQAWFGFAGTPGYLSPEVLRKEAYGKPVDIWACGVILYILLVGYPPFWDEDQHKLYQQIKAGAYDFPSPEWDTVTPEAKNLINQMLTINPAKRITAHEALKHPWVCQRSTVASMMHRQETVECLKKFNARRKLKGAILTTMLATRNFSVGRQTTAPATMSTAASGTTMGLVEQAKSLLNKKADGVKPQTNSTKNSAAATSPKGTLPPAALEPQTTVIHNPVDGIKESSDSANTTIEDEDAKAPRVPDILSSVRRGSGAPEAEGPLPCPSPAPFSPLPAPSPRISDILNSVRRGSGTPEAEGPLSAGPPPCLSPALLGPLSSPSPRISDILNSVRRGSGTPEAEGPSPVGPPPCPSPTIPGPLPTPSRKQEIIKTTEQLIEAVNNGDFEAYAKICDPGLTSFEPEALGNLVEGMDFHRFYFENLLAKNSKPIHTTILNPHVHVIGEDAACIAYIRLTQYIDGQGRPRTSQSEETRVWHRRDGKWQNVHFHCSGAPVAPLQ
# [28] = system: Epidermal growth factor receptor (Homo sapiens), P00533 [L858R,T790M]; details: Compound concentration 1000.0 nM
# [29] = system: Tyrosine-protein kinase ABL1 (Homo sapiens), P00519 [F317L]; details: Compound concentration 1000.0 nM
# [30] = target: Fibroblast growth factor receptor 4 (Homo sapiens) (UniProt P22455); details: Compound concentration 1000.0 nM
# [31] = target: Serine/threonine-protein kinase Sgk3 (Homo sapiens) (UniProt Q96BR1); details: Compound concentration 1000.0 nM
# Sequence of Serine/threonine-protein kinase Sgk3 (Homo sapiens) (Q96BR1 whole entry): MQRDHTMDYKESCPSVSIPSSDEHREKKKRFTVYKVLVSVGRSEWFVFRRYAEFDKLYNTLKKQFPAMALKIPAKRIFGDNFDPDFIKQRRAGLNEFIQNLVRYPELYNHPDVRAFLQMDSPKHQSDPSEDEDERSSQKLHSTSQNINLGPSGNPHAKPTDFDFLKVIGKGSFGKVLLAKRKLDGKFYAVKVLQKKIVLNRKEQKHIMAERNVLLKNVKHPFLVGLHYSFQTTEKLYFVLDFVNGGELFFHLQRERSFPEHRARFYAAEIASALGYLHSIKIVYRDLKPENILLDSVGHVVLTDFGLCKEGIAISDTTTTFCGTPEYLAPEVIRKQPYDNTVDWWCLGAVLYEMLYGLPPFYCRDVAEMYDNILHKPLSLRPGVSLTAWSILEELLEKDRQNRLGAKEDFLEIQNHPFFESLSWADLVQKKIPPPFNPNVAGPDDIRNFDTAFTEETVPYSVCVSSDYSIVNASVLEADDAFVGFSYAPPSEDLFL
# [32] = target: Serine/threonine-protein kinase 17B (Homo sapiens) (UniProt O94768); details: Compound concentration 1000.0 nM
# [33] = target: Ribosomal protein S6 kinase alpha-4 (Homo sapiens) (UniProt O75676); details: Compound concentration 1000.0 nM
# [34] = target: Tyrosine-protein kinase Tec (Homo sapiens) (UniProt P42680); details: Compound concentration 1000.0 nM
# [35] = target: Myosin light chain kinase (Homo sapiens) (UniProt Q32MK0); details: Compound concentration 1000.0 nM
# [36] = target: NUAK family SNF1-like kinase 1 (Homo sapiens) (UniProt O60285); details: Compound concentration 1000.0 nM
# [37] = target: Homeodomain-interacting protein kinase 4 (Homo sapiens) (UniProt Q8NE63); details: Compound concentration 1000.0 nM
# [38] = target: Serine/threonine-protein kinase SBK1 (Homo sapiens) (UniProt Q52WX2); details: Compound concentration 1000.0 nM
# [39] = target: BMP-2-inducible protein kinase (Homo sapiens) (UniProt Q9NSY1); details: Compound concentration 1000.0 nM
# [40] = target: Sigma intracellular receptor 2 (Homo sapiens, UniProt Q5BJF2); experiment: GPCRScan assay: inhibition of Sigma 2; set-up: radioligand conc. used [nm] 5.0, parental cells HEKT
# Sequence of Sigma intracellular receptor 2 (Q5BJF2 whole entry): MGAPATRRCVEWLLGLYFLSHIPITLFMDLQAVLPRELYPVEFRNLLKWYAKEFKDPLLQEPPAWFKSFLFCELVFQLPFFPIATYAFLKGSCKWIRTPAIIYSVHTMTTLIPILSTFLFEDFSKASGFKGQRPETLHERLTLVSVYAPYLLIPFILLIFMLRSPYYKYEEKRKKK
# [41] = target: Tyrosine-protein kinase JAK1 (Homo sapiens) (UniProt P23458); details: Compound concentration 1000.0 nM
# [42] = target: Casein kinase I isoform delta (Homo sapiens) (UniProt P48730); details: Compound concentration 1000.0 nM
# Sequence of Casein kinase I isoform delta (Homo sapiens) (P48730 whole entry, looked up, canonical isoform): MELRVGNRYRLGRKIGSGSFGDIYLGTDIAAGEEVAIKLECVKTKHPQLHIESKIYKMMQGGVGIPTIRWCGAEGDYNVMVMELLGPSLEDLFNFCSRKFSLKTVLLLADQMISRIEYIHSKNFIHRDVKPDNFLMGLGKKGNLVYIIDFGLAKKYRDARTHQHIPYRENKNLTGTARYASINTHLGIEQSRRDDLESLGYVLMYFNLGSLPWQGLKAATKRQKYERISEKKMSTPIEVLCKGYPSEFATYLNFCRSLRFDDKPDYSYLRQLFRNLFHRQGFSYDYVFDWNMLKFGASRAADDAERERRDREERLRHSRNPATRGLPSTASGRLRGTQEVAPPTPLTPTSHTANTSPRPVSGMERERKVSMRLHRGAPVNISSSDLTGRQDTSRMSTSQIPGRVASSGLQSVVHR
# [43] = target: Serine/threonine-protein kinase Nek10 (Homo sapiens) (UniProt Q6ZWH5); details: Compound concentration 1000.0 nM
# [44] = system: Hepatocyte growth factor receptor (Homo sapiens), P08581 [Y1235D]; details: Compound concentration 1000.0 nM
# [45] = target: Dual specificity mitogen-activated protein kinase kinase 6 (Homo sapiens) (UniProt P52564); details: Compound concentration 1000.0 nM
smiles,measurement,setting,value
COc1cccc(CNC(=O)c2nc3scc(COCc4ccc(C(=O)O)cc4)c3c(=O)[nH]2)c1 [T-26c],residual activity,[1],80.4%
same,inhibition,[2],-5.4%
same,residual activity,[3],89.4%
same,residual activity,[4],96.2%
same,residual activity,[5],71.9%
same,residual activity,[6],64.8%
same,residual activity,[7],100%
same,residual activity,[8],95%
same,residual activity,[9],79.8%
same,residual activity,[10],82.8%
same,inhibition,[11],4.23%
same,residual activity,[12],100%
same,residual activity,[13],100%
same,residual activity,[14],83%
same,residual activity,[15],100%
same,residual activity,[16],66.1%
same,residual activity,[17],100%
same,residual activity,[18],65.5%
same,residual activity,[19],93.8%
same,inhibition,[20],15.8%
same,residual activity,[21],83.7%
same,residual activity,[22],81.8%
same,residual activity,[23],100%
same,residual activity,[24],100%
same,residual activity,[25],100%
same,residual activity,[26],86.2%
same,residual activity,[27],96.8%
same,residual activity,[28],58.6%
same,residual activity,[29],87.2%
same,residual activity,[30],91.4%
same,residual activity,[31],69.2%
same,residual activity,[32],94.4%
same,residual activity,[33],82.3%
same,residual activity,[34],86%
same,residual activity,[35],72.8%
same,residual activity,[36],86.6%
same,residual activity,[37],94.3%
same,residual activity,[38],53.7%
same,residual activity,[39],92.3%
same,Ki,[40]; read-out: Ki,4.55 µM
same,Ki,[40]; read-out: pKi (converted),3.98 µM
same,residual activity,[41],93.9%
same,residual activity,[42],100%
same,residual activity,[43],61.7%
same,residual activity,[44],100%
same,residual activity,[45],100%
